# Experimental data: the supplement of paper PMC11061612
# What was measured:
# Test in all cases: combination Emax (second highest fraction inhibited in the dose matrix, 72 h); higher = more inhibition; extreme values may be limits of the assay
# 5637 (Bladder Carcinoma) = tested on: 5637 (Bladder Carcinoma)
# Method in brief: (§1)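 Bliss excess equals the observed combination effect minus the expected value EA + EB − EA·EB, where EA and EB are the effects of each agent alone. Combination Emax is the second-highest inhibition within the matrix. Inhibition was scaled from CellTiter-Glo 2.0 luminescence, with 0 set by vehicle wells and 1 by blank wells, after 72 hours of two-drug dosing of cells plated in 1536-well plates.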
# [1] = tested on: CA46 (Burkitt's Lymphoma)
# Method in brief: as §1
# [2] = tested on: CAL-27 (Oral Cavity Carcinoma)
# Method in brief: as §1
# [3] = tested on: CESS (Acute Myeloid Leukemia)
# Method in brief: as §1
# COLO-792 (Melanoma) = tested on: COLO-792 (Melanoma)
# Method in brief: as §1
# [4] = tested on: DMS-53 (Small Cell Lung Carcinoma)
# Method in brief: as §1
# [5] = tested on: DU-4475 (Breast Carcinoma)
# Method in brief: as §1
# [6] = tested on: EPLC-272H (Other Solid Carcinomas)
# Method in brief: as §1
# EW-16 (Ewing's Sarcoma) = tested on: EW-16 (Ewing's Sarcoma)
# Method in brief: as §1
# [7] = tested on: G-402 (Other Solid Carcinomas)
# Method in brief: as §1
# [8] = tested on: GA-10 (Burkitt's Lymphoma)
# Method in brief: as §1
# [9] = tested on: GCT (Other Solid Carcinomas)
# Method in brief: as §1
# [10] = tested on: HCC1428 (Breast Carcinoma)
# Method in brief: as §1
# [11] = tested on: HT55 (Colorectal Carcinoma)
# Method in brief: as §1
# [12] = tested on: LS-411N (Colorectal Carcinoma)
# Method in brief: as §1
# NB13 (Neuroblastoma) = tested on: NB13 (Neuroblastoma)
# Method in brief: as §1
# [13] = tested on: NCI-H2228 (Lung Adenocarcinoma)
# Method in brief: as §1
# RH-41 (Rhabdomyosarcoma) = tested on: RH-41 (Rhabdomyosarcoma)
# Method in brief: as §1
# [14] = tested on: TE-10 (Esophageal Squamous Cell Carcinoma)
# Method in brief: as §1
# [15] = tested on: huH-1 (Hepatocellular Carcinoma)
# Method in brief: as §1
Structure (SMILES),combination Emax (5637 (Bladder Carcinoma)),combination Emax [1],combination Emax [2],combination Emax [3],combination Emax (COLO-792 (Melanoma)),combination Emax [4],combination Emax [5],combination Emax [6],combination Emax (EW-16 (Ewing's Sarcoma)),combination Emax [7],combination Emax [8],combination Emax [9],combination Emax [10],combination Emax [11],combination Emax [12],combination Emax (NB13 (Neuroblastoma)),combination Emax [13],combination Emax (RH-41 (Rhabdomyosarcoma)),combination Emax [14],combination Emax [15]
"CN(CCO)CC[C@H](CSc1ccccc1)Nc1ccc(S(=O)(=O)NC(=O)c2ccc(N3CCC([C@@H](O)c4ccccc4-c4ccc(Cl)cc4)CC3)cc2)cc1S(=O)(=O)C(F)(F)F [AZD4320] + CCN(CCO)CCCOc1ccc2c(Nc3cc(CC(=O)Nc4cccc(F)c4)[nH]n3)ncnc2c1 [AZD2811] (first compound max 1 µM, 7x7, partner max 1 µM)",0.898,0.356,0.752,0.937,0.781,0.949,0.971,0.635,0.973,0.776,0.661,0.239,0.754,0.376,0.567,1,0.271,0.828,0.463,0.297
"CN(CCO)CC[C@H](CSc1ccccc1)Nc1ccc(S(=O)(=O)NC(=O)c2ccc(N3CCC([C@@H](O)c4ccccc4-c4ccc(Cl)cc4)CC3)cc2)cc1S(=O)(=O)C(F)(F)F [AZD4320] + C[C@@H]1COCCN1C2=NC(=NC(=C2)C3(CC3)[S@](=N)(=O)C)C4=C5C=CNC5=NC=C4 [AZD6738] (first compound max 1 µM, 7x7, partner max 10 µM)",0.91,0.362,0.498,0.987,0.692,0.994,1,0.936,0.932,0.84,0.979,0.304,0.708,0.707,0.943,1,0.466,0.964,0.84,0.823
"CN(CCO)CC[C@H](CSc1ccccc1)Nc1ccc(S(=O)(=O)NC(=O)c2ccc(N3CCC([C@@H](O)c4ccccc4-c4ccc(Cl)cc4)CC3)cc2)cc1S(=O)(=O)C(F)(F)F [AZD4320] + C[C@@H](Nc1cc(F)cc(F)c1)c1cc(C(=O)N(C)C)cc2c(=O)cc(N3CCOCC3)oc12 [AZD8186] (first compound max 1 µM, 7x7, partner max 3 µM)",0.672,0.196,0.659,0.935,0.939,0.991,1,0.602,0.937,0.681,0.85,0.442,0.525,0.422,0.414,1,0.329,0.941,0.618,0.229
"CN(CCO)CC[C@H](CSc1ccccc1)Nc1ccc(S(=O)(=O)NC(=O)c2ccc(N3CCC([C@@H](O)c4ccccc4-c4ccc(Cl)cc4)CC3)cc2)cc1S(=O)(=O)C(F)(F)F [AZD4320] + Cc1cc2ncnn2cc1Nc1ncc2c(n1)n(C1CCOCC1)c(=O)n2C [AZD7648] (first compound max 1 µM, 7x7, partner max 10 µM)",0.172,0.306,0.0955,0.566,0.9,0.977,0.916,0.525,0.389,0.475,0.643,0.25,0.584,0.196,0.183,1,0.296,0.91,0.202,0.127
"CN(CCO)CC[C@H](CSc1ccccc1)Nc1ccc(S(=O)(=O)NC(=O)c2ccc(N3CCC([C@@H](O)c4ccccc4-c4ccc(Cl)cc4)CC3)cc2)cc1S(=O)(=O)C(F)(F)F [AZD4320] + Cn1cnc2c(F)c(Nc3ccc(Br)cc3Cl)c(C(=O)NOCCO)cc21 [Selumetinib] (first compound max 1 µM, 7x7, partner max 3 µM)",0.782,0.19,0.661,0.95,0.913,1,1,0.562,0.913,0.553,0.491,0.352,0.559,0.721,0.907,1,0.203,0.855,0.562,0.291
"Cc1cc2ncnn2cc1Nc1ncc2c(n1)n(C1CCOCC1)c(=O)n2C [AZD7648] + C=CCn1c(=O)c2cnc(Nc3ccc(N4CCN(C)CC4)cc3)nc2n1-c1cccc(C(C)(C)O)n1 [AZD1775] (first compound max 10 µM, partner max 1 µM)",0.792,0.693,0.345,0.919,0.558,0.204,0.88,0.832,0.448,0.543,0.988,0.452,0.238,0.341,0.574,0.91,0.561,0.927,0.86,0.746
"Cc1cc2ncnn2cc1Nc1ncc2c(n1)n(C1CCOCC1)c(=O)n2C [AZD7648] + CCN(CCO)CCCOc1ccc2c(Nc3cc(CC(=O)Nc4cccc(F)c4)[nH]n3)ncnc2c1 [AZD2811] (first compound max 10 µM, 7x7, partner max 1 µM)",0.648,0.418,0.583,0.243,0.46,0.165,0.23,0.496,0.445,0.663,0.852,0.312,0.326,0.229,0.208,0.518,0.434,0.329,0.335,0.561
"Cc1cc2ncnn2cc1Nc1ncc2c(n1)n(C1CCOCC1)c(=O)n2C [AZD7648] + CN(C)CCCOc1ccc(-c2ccc3ncc4c(c3c2)n(C2CCOCC2)c(=O)n4C)cn1 [AZD0156] (first compound max 10 µM, 7x7, partner max 1 µM)",0.153,0.288,0.222,0.367,0.351,0.139,0.0619,0.458,0.192,0.51,0.446,0.343,0.238,0.169,0.115,0.303,0.407,0.282,0.292,0.3
"Cc1cc2ncnn2cc1Nc1ncc2c(n1)n(C1CCOCC1)c(=O)n2C [AZD7648] + C[C@@H]1COCCN1C2=NC(=NC(=C2)C3(CC3)[S@](=N)(=O)C)C4=C5C=CNC5=NC=C4 [AZD6738] (first compound max 10 µM, 7x7, partner max 10 µM)",0.632,0.492,0.431,0.847,0.386,0.153,0.912,0.879,0.69,0.602,0.981,0.245,0.201,0.429,0.723,0.919,0.514,0.705,0.887,0.8
"Cc1cc2ncnn2cc1Nc1ncc2c(n1)n(C1CCOCC1)c(=O)n2C [AZD7648] + O=C(c1cc(Cc2n[nH]c(=O)c3ccccc23)ccc1F)N1CCN(C(=O)C2CC2)CC1 [Olaparib] (first compound max 10 µM, 7x7, partner max 10 µM)",0.25,0.221,0.347,0.37,0.347,0.128,0.565,0.53,0.47,0.41,0.569,0.243,0.147,0.129,0.0674,0.263,0.353,0.345,0.233,0.198
"COc1cc2c(cc1OCCCCCOc1cc3c(cc1OC)C(=O)N1C=C(C)C[C@H]1C=N3)N=C[C@@H]1CC(C)=CN1C2=O [SG3199] + O=C(c1cc(Cc2n[nH]c(=O)c3ccccc23)ccc1F)N1CCN(C(=O)C2CC2)CC1 [Olaparib] (first compound max 0.001 µM, 7x7, partner max 10 µM)",0.187,0.157,0.288,0.182,0.109,0.153,0.838,0.123,0.445,0.364,0.324,0.204,0.0458,0.149,0.0262,0.213,0.115,0.245,0.107,0.142
